Like-named read-outs stand apart in the source and are kept apart here.
How the values were obtained:
[1] = tested on: PD1-ss+10aa/Gaussia Luciferase; experiment: Dox-Induced PD1-ss-Gluc Assay; assay type: cell-based
In short: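 Stable Flp-In 293 T-REx cells carried a doxycycline-inducible construct of Gaussia luciferase fused to the PD1 signal sequence plus 10 amino acids. Cells were plated the day before, then treated with compound dilutions in DMSO/media containing doxycycline at 37 °C, 5% CO2.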

[2] = tested on: multiple myeloma cell line NCI-H929; experiment: H929 Cell Viability Assay; assay type: cell-based, human; settings: Homo sapiens
In short: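 Viability is scored by CellTiter-Glo luminescence following a 48-hour treatment at 37° C. Data for structures shown without stereochemistry refer to stereoisomer mixtures.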

[3] = Liver Microsome Stability Assay, mouse; assay type: in vitro ADME; settings: mouse liver microsomes 1.0 mg/mL, 1.0 uM compound, 37° C., 1 mM NADPH
In short: (§1)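 Compound at 1.0 uM (0.4% DMSO) was incubated at 37° C with 1.0 mg/mL liver microsomes in 0.1 M potassium phosphate, with or without 1 mM NADPH. Samples were quenched at 0 and 30 minutes.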

[4] = Liver Microsome Stability Assay, human; assay type: in vitro ADME; settings: human liver microsomes 1.0 mg/mL, 1.0 uM compound, 37° C., 1 mM NADPH
In short: as §1

[5] = tested on: multiple myeloma cell line U266B1; experiment: U266 Cell Viability Assay; assay type: cell-based; settings: Homo sapiens
In short: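 Viability is measured as luciferase signal from CellTiter-Glo following a 48-hour incubation with compound at 37° C. under 5% CO2. Where structures lack drawn stereochemistry, values refer to stereoisomer mixtures.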

[6] = Liver Microsome Stability Assay, monkey; assay type: in vitro ADME; settings: monkey liver microsomes 1.0 mg/mL, 1.0 uM compound, 37° C., 1 mM NADPH
In short: as §1

[7] = Liver Microsome Stability Assay, rat; assay type: in vitro ADME; settings: rat liver microsomes 1.0 mg/mL, 1.0 uM compound, 37° C., 1 mM NADPH
In short: as §1

[8] = tested on: HER3-ss+4aa/Gaussia Luciferase; experiment: Dox-Inducible Her3-ss-Gluc Assay; assay type: cell-based
Text: Flp-In 293 T-REx™ cells were transfected with pcDNA™5/FRT/TO plasmid inserted with cDNA encoding Gaussia Luciferase fused to the 3′ end of cDNA encoding HER3 signal sequence plus 4 amino acids (N-[…]-C) (SEQ ID NO: 2). Transfected cells were selected for resistance to the selectable markers Hygromycin and Blasticidin to create a stable cell line that contained the HER3-ss+4aa/Gaussia Luciferase cDNA insert whose expression was regulated under the T-REx™ system. The day before assay, cells were trypsinized and plated in 384-well tissue culture plates. The next day, compound dilutions in DMSO/media containing doxycycline were added to the wells and incubated at 37° C., 5% CO2.
(§2) For chemical structures that include one or more stereoisomers, but are illustrated without indicating stereochemistry, the assay data refers to a mixture of stereoisomers.

[9] = tested on: IL-2-FL/Gaussia Luciferase; experiment: Dox Inducible IL2-FL-Gluc Assay; assay type: cell-based
In short: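 Doxycycline induces an IL-2(1-153)–Gaussia luciferase fusion in a stable Flp-In 293 T-REx line. Compound exposure runs alongside induction at 37° C.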

[10] = tested on: TNFα-FL/Gaussia Luciferase; experiment: Dox Induced TNFα-FL-Gluc Assay; assay type: cell-based
Text: Flp-In 293 T-REx™ cells were transfected with pcDNA™5/FRT/TO plasmid inserted with cDNA encoding Gaussia Luciferase fused to the 3′ end of cDNA encoding full length TNFα (amino acids 1-233). Transfected cells were selected for resistance to the selectable markers Hygromycin and Blasticidin to create a stable cell line that contained the TNFα-FL/Gaussia Luciferase cDNA insert whose expression was regulated under the T-REx™ system. The day before assay, cells were trypsinized and plated in 384-well tissue culture plates. The next day, compound dilutions in DMSO/media containing doxycycline were added to the wells and incubated at 37° C., 5% CO2.
as §2

[11] = Flp-In 293 T-REx cells, 24 hours with doxycycline; Table 3; read-out: 24 hr Dox Inducible PD1ssGluc 293FRT/TO: Mean IC50
[12] = NCI-H929 cells, 48 hours, Celltiter-Glo, read-out: 48 hr H929 Viability Celltiter-Glo: Mean EC50
[13] = U-266, U266B1 cells, 48 hours, Celltiter-Glo, read-out: 48 hr U266 Viability Celltiter-Glo: Mean EC50
[14] = Flp-In 293 T-REx cells, 24 hours with doxycycline; Table 3; read-out: 24 hr Dox Inducible Her3(ss + 4)Gluc 293FRT/TO: Mean IC50
[15] = Flp-In 293 T-REx cells, 24 hours with doxycycline; Table 3; read-out: 24 hr Dox Inducible IL2FLGluc 293FRT/TO: Mean IC50
[16] = ratio of IC50s IL2/PD1; Table 3
[17] = Flp-In 293 T-REx cells, 24 hours with doxycycline; Table 3; read-out: 24 hr Dox Inducible TNFaFLGluc 293FRT/TO: Mean IC50
[18] = ratio of IC50s TNF/PD1; Table 3

Compound | IC50 [1, 11] | EC50 [2, 12] | Liver Microsome Stability (Multiple Species): Mouse - % Remaining after 30 min w/ NADPH (%) [3] | Liver Microsome Stability (Multiple Species): Human - % Remaining after 30 min w/ NADPH (%) [4] | EC50 [5, 13] | Liver Microsome Stability (Multiple Species): Monkey - % Remaining after 30 min w/ NADPH (%) [6] | Liver Microsome Stability (Multiple Species): Rat - % Remaining after 30 min w/ NADPH (%) [7] | IC50 [8, 14] | IC50 [9, 15] | 24 hr Dox Inducible IL2FLGluc 293FRT/TO: IL2/PD1 [9, 16] | IC50 [10, 17] | 24 hr Dox Inducible TNFaFLGluc 293FRT/TO: TNF/PD1 [10, 18] | IC50 ([1]; read-out: 24 hr Dox Inducible PD1ssGluc 293FRT/TO: Mean IC50; Flp-In 293 T-REx cells, 24 hours with doxycycline; Table 3) | EC50 ([2]; NCI-H929, 48 h, read-out: 48 hr H929 Viability Celltiter-Glo: Mean EC50 (nM)) | EC50 ([5]; U-266, 48 h, read-out: 48 hr U266 Viability Celltiter-Glo: Mean EC50 (nM)) | IC50 ([8]; read-out: 24 hr Dox Inducible Her3(ss + 4)Gluc 293FRT/TO: Mean IC50; Flp-In 293 T-REx cells, 24 hours with doxycycline; Table 3) | IC50 ([9]; read-out: 24 hr Dox Inducible IL2FLGluc 293FRT/TO: Mean IC50; Flp-In 293 T-REx cells, 24 hours with doxycycline; Table 3) | IC50 ([10]; read-out: 24 hr Dox Inducible TNFaFLGluc 293FRT/TO: Mean IC50; Flp-In 293 T-REx cells, 24 hours with doxycycline; Table 3)
O=C(Nc1nc(/C=C/[C@H]2CC[C@H](C(F)(F)F)CC2)cs1)c1cccn1Cc1ccncc1 [Compound B10, 1-(pyridin-4-ylmethyl)-N-(4-((E)-2-((1r,4r)-4-(trifluoromethyl)cyclohexyl)vinyl)thiazol-2-yl)-1H-pyrrole-2-carboxamide] | 41 nM | 5810 nM | 49% | 38% | > 25000 nM | 11% | 5% | 86 nM | 249 nM | 6 | 1010 nM | 25 | – | – | – | – | – | –
O=C(Nc1nc(/C=C/C2CCCC2)cs1)c1cccn1Cc1ccnc(F)c1 [Compound B26, (E)-N-(4-(2-cyclopentylvinyl)thiazol-2-yl)-1-((2-fluoropyridin-4-yl)methyl)-1H-pyrrole-2-carboxamide] | 117 nM | 7130 nM | 31% | 59% | 19700 nM | <1% | 10% | 332 nM | 737 nM | 6 | 3820 nM | 33 | – | – | – | – | – | –
C/C(=C\c1ccc(C)c(F)n1)c1csc(NC(=O)c2cccn2Cc2ccnc(F)c2)n1 [Compound B7, (E)-N-(4-(1-(6-fluoro-5-methylpyridin-2-yl)prop-1-en-2-yl)thiazol-2-yl)-1-((2-fluoropyridin-4-yl)methyl)-1H-pyrrole-2-carboxamide] | 30 nM | 8090 nM | 23% | 4% | > 25000 nM | 6% | 13% | 184 nM | 499 nM | 17 | 3980 nM | 134 | – | – | – | – | – | –
O=C(Nc1nc(/C=C/c2ccc(C(F)(F)F)cn2)cs1)c1cccn1Cc1ccnc(F)c1 [Compound B5, (E)-1-((2-fluoropyridin-4-yl)methyl)-N-(4-(2-(5-(trifluoromethyl)pyridin-2-yl)vinyl)thiazol-2-yl)-1H-pyrrole-2-carboxamide] | 17 nM | > 25000 nM | 20% | 4% | > 25000 nM | <1% | 20% | 553 nM | 1200 nM | 70 | 3940 nM | 230 | – | – | – | – | – | –
CC(C)n1cnc(F)c1/C=C/c1csc(NC(=O)c2cccn2Cc2ccnc(F)c2)n1 [Compound B2, (E)-N-(4-(2-(4-fluoro-1-isopropyl-1H-imidazol-5-yl)vinyl)thiazol-2-yl)-1-((2-fluoropyridin-4-yl)methyl)-1H-pyrrole-2-carboxamide] | – | – | 6% | <1% | – | <1% | 8% | – | – | 2 | – | >5 | 4480 nM | > 25000 nM | > 25000 nM | 6400 nM | 6640 nM | > 25000 nM
O=C(Nc1nc(/C=C/[C@H]2CC[C@@H](C(F)(F)F)CC2)cs1)c1cccn1Cc1ccncc1 [Compound B9, 1-(pyridin-4-ylmethyl)-N-(4-((E)-2-((1s,4s)-4-(trifluoromethyl)cyclohexyl)vinyl)thiazol-2-yl)-1H-pyrrole-2-carboxamide] | 161 nM | 6260 nM | 6% | 6% | 20000 nM | 1% | 4% | 298 nM | 748 nM | 5 | 3970 nM | 25 | – | – | – | – | – | –
O=C(Nc1nc(/C=C/c2ncn(C3CC3)c2Cl)cs1)c1cc(Cl)cn1Cc1ccnc(F)c1 [Compound A12] | 11 nM | 10200 nM | 78% | 8% | > 25000 nM | 5% | 17% | 1150 nM | 1530 nM | 150 | 8540 nM | 807 | – | – | – | – | – | –
O=C(Nc1nc(/C=C/c2ccc(OC(F)F)cn2)cs1)c1cccn1Cc1ccnc(F)c1 [Compound B4, (E)-N-(4-(2-(5-(difluoromethoxy)pyridin-2-yl)vinyl)thiazol-2-yl)-1-((2-fluoropyridin-4-yl)methyl)-1H-pyrrole-2-carboxamide] | 13 nM | 8750 nM | 7% | <1% | 19400 nM | <1% | 1% | 816 nM | 1650 nM | 130 | 7040 nM | 544 | – | – | – | – | – | –
